Measured values taken from ChEMBL document CHEMBL1144283, “Truncated azinomycin analogues intercalate into DNA” (Bioorg Med Chem Lett, 2005).

Legend:
[1] = Inhibitory concentration measured against the prostate cancer cell line DU145; type: functional, cell-based, Homo sapiens; details: cancer cell lines
[2] = Inhibitory concentration measured against the prostate cancer cell line DU145; IA:Inactive; type: functional, cell-based, Homo sapiens; details: cancer cell lines

Compound: COc1cc(C(=O)O[C@H](C(N)=O)[C@]2(C)CO2)c2cccc(C)c2c1
- IC50 [1]: 50 nM

Compound: COc1cc(C(=O)NCCN2CCCC(Cl)C2)c2cccc(C)c2c1 (stereo not drawn)
- IC50 [2]: Not Active

Compound: COc1cc(C(=O)NCCN2CCCC(O)C2)c2cccc(C)c2c1 (stereo not drawn)
- IC50 [2]: Not Active
